In patent publication US12410153B2, “Compounds, compositions and methods” (Avalo Therapeutics, Inc., priority 2014, dated 2025):
Like-named read-outs stand apart in the source and are kept apart here.

Test: Repeated once-daily oral dosing with food (Days 1-7) in healthy subjects, PK and PD
Format: in vivo, human
Conditions: for mean plasma concentrations higher vs young age subgroup: Day 7, 2 to 24 hours postdose; for AUC(0-t) / Cmax / Vd/F / Tmax / AUC(0-inf) / half-life: plasma, oral; for Cmax: read-out: Cmax, Mean (SD); for AUC(0-inf): read-out: AUCinf, Mean (SD); for half-life: read-out: t1/2, Mean (SD) (converted)
Procedure: A randomized, double-blind, placebo-controlled, parallel-dose group in-patient study is conducted to investigate the pharmacodynamic (PD) effects of crystalline Form II of Compound (I) in healthy subjects.
The study is designed as a three-part, sequential study. The sequential nature of the study ensures that a range of doses are investigated first in a young, healthy population (Part 1) before proceeding to higher doses in the healthy population and the comparator populations (intermediate age and elderly) (Parts 2 and 3). For the purposes of this study, “young” refers to a subject who is 18 to 45 years of age, “intermediate age” refers to a subject who is 46 to 64 years of age, and “elderly” refers to a subject who is 65 years of age or older.
After a screening period of up to 21 days (Days −23 to −3), 16 healthy, young male and female subjects are randomly assigned to a dose group as shown in Table 9.
Each parallel dose group is balanced for gender (approximately equal number of males and females). The randomized subjects are domiciled from Day −1 through Day 8. On Day −1, the subjects receive placebo tablets in the fed state and undergo ambulatory blood pressure monitoring (ABPM) and safety assessments to establish time-matched baselines. On Days 1-7, the subjects receive the study drug in the fed state and undergo safety, pharmacokinetic (PK) and pharmacodynamics (PD) assessments. On Days 8-11, follow-up PK and safety assessments are performed.
Safety assessments include Clinician-Administered Dissociative States Scale (CADSS), Columbia-Suicide Severity Rating Scale (C-SSRS), concomitant medication, adverse event (AE) and vital sign assessments. In PK assessments, blood samples are taken and analyzed to determine PK parameters such as Cmax, Tmax, AUC0-24, and t1/2. PD assessments include ABPM, plasma brain-derived neurotrophic factor (BDNF) measurements, and Profile of Mood States (POMS) assessments.
After a screening period of up to 21 days (Days −23 to −3), 16 subjects (8 healthy, young male and female subjects, and 8 healthy, intermediate age male and female subjects) are randomly assigned to a dose group as shown in Table 10.
After a screening period of up to 21 days (Days −23 to −3), 16 subjects (8 healthy, young male and female subjects, and 8 healthy, elderly male and female subjects) are randomly assigned to a dose group as shown in Table 11.

[1] = female, human, females, all doses pooled, Day 7
[2] = females, all doses pooled, Day 1
[3] = females, all doses pooled, Day 7
[4] = male, human, males, all doses pooled, Day 7

In the case of `Cc1ccc(COC(=O)N2CC[C@H](CNc3ncccn3)[C@H](F)C2)cc1` [Form II, 4-methylbenzyl (3S, 4R)-3-fluoro-4-[(pyrimidin-2-ylamino)methyl] piperidine-1-carboxylate], the “Dose-Normalized Cmax, Mean (SD)” value (elderly, 12 mg, Day 1) is reported as 29.11 (3.96) ng/mL/mg, the “AUC% extrap, Mean (SD)” value (elderly, 12 mg, Day 7) is reported as 9.70 (5.93) % and the “CL/F, Mean (SD)” value (elderly, 12 mg, Day 7) is reported as 2.79 (0.72) L/h. The “Dose-Normalized AUCinf, Mean (SD)” value (elderly, 12 mg, Day 7) was 858.67 (325.40) h * ng/mL/mg, the “Dose-Normalized Cmax, Mean (SD)” value (elderly, 12 mg, Day 7) was 29.11 (3.96) ng/mL/mg and the “apparent oral clearance lower vs young age group” value (elderly, Day 7) was “approximately 30%”. For the same compound, the “t½ higher vs young age group” value (elderly, Day 7) was roughly 38%, the “mean plasma concentrations higher vs young age subgroup” value (elderly) was roughly 40% and the AUC(0-t) (female, human, females, all doses pooled, Day 1, read-out: AUC0-24, Mean (SD)) was 2340 ng·h/mL. It also gave an AUC(0-t) (female, human, females, all doses pooled, Day 1, read-out: AUClast, Mean (SD)) of 2310 ng·h/mL, a Cmax (female, human, females, all doses pooled, Day 1) of 270 ng/mL and a Vd/F (female, human, females, all doses pooled, Day 1, read-out: Vz/F, Mean (SD)) of 182 L. The Tmax (female, human, females, all doses pooled, Day 1, read-out: tmax, Mean (SD)) was 2.26 h, the Tmax (female, human, females, all doses pooled, Day 1, read-out: tmax, Median) was 2 h and the AUC(0-t) (female, human, females, all doses pooled, Day 7, read-out: AUC0-24, Mean (SD)) was 4470 ng·h/mL. For the same compound, the AUC(0-inf) [1] was 9320 ng·h/mL, the AUC(0-t) (female, human, females, all doses pooled, Day 7, read-out: AUClast, Mean (SD)) was 8580 ng·h/mL and the Cmax [1] was 373 ng/mL. For the same compound, the Vd/F (female, human, females, all doses pooled, Day 7, read-out: Vss/F, Mean (SD)) was 105 L, the half-life [1] was 23.8 h and the Tmax (female, human, females, all doses pooled, Day 7, read-out: tmax, Mean (SD)) was 2.31 h. The Tmax (female, human, females, all doses pooled, Day 7, read-out: tmax, Median) was 2 h, the “Day 7/Day 1 Cmax Ratio, Mean (SD)” value (females, all doses pooled) was 1.38 (0.27) and the “Observed Accumulation Index, Mean (SD)” value (females, all doses pooled) was 1.88 (0.37). The “Steady State Accumulation Index, Mean (SD)” value (females, all doses pooled) was 1.10 (0.15), the “CL/F, Mean (SD)” value [2] was 5.79 (0.84) L/h and the “Dose-Normalized Cmax, Mean (SD)” value [2] was 20.59 (2.86) ng/mL/mg. For the same compound, the “AUC% extrap, Mean (SD)” value [3] was 6.76 (4.26) %, the “CL/F, Mean (SD)” value [3] was 3.19 (0.84) L/h and the “Dose-Normalized AUCinf, Mean (SD)” value [3] was 698.59 (282.19) h * ng/mL/mg. The “Dose-Normalized Cmax, Mean (SD)” value [3] was 27.98 (5.43) ng/mL/mg, the “effects on average nighttime SBP and DBP” value (human, in vivo) was “smaller and less consistently observed” and the “Day 7/Day 1 Cmax Ratio, Mean (SD)” value (intermediate age, 12 mg) was 1.41 (0.17). The “Observed Accumulation Index, Mean (SD)” value (intermediate age, 12 mg) was 1.92 (0.25), the “Steady State Accumulation Index, Mean (SD)” value (intermediate age, 12 mg) was 1.13 (0.16) and the “CL/F, Mean (SD)” value (intermediate age, 12 mg, Day 1) was 6.22 (1.34) L/h. The “Dose-Normalized Cmax, Mean (SD)” value (intermediate age, 12 mg, Day 1) was 21.42 (4.22) ng/mL/mg, the “AUC% extrap, Mean (SD)” value (intermediate age, 12 mg, Day 7) was 7.51 (1.85) % and the “CL/F, Mean (SD)” value (intermediate age, 12 mg, Day 7) was 3.27 (0.80) L/h. For the same compound, the “Dose-Normalized AUCinf, Mean (SD)” value (intermediate age, 12 mg, Day 7) was 675.34 (189.17) h * ng/mL/mg, the “Dose-Normalized Cmax, Mean (SD)” value (intermediate age, 12 mg, Day 7) was 30.03 (5.40) ng/mL/mg and the “apparent oral clearance lower vs young age group” value (intermediate age, Day 7) was “approximately 18%”. The “t½ higher vs young age group” value (intermediate age, Day 7) was “approximately 27%”, the “mean plasma concentrations higher vs young age subgroup” value (intermediate age) was “approximately 20%” and the AUC(0-t) (male, human, males, all doses pooled, Day 1, read-out: AUC0-24, Mean (SD)) was 2210 ng·h/mL. It also gave an AUC(0-t) (male, human, males, all doses pooled, Day 1, read-out: AUClast, Mean (SD)) of 2190 ng·h/mL, a Cmax (male, human, males, all doses pooled, Day 1) of 262 ng/mL and a Vd/F (male, human, males, all doses pooled, Day 1, read-out: Vz/F, Mean (SD)) of 147 L. It also gave a Tmax (male, human, males, all doses pooled, Day 1, read-out: tmax, Mean (SD)) of 2.12 h, a Tmax (male, human, males, all doses pooled, Day 1, read-out: tmax, Median) of 2 h and an AUC(0-t) (male, human, males, all doses pooled, Day 7, read-out: AUC0-24, Mean (SD)) of 3750 ng·h/mL. The AUC(0-inf) [4] was 6770 ng·h/mL, the AUC(0-t) (male, human, males, all doses pooled, Day 7, read-out: AUClast, Mean (SD)) was 6350 ng·h/mL and the Cmax [4] was 355 ng/mL. The Vd/F (male, human, males, all doses pooled, Day 7, read-out: Vss/F, Mean (SD)) was 108 L, the half-life [4] was 20.6 h and the Tmax (male, human, males, all doses pooled, Day 7, read-out: tmax, Mean (SD)) was 1.88 h. The Tmax (male, human, males, all doses pooled, Day 7, read-out: tmax, Median) was 1.75 h, the “Day 7/Day 1 Cmax Ratio, Mean (SD)” value (males, all doses pooled) was 1.36 (0.22) and the “Observed Accumulation Index, Mean (SD)” value (males, all doses pooled) was 1.72 (0.28). The “Steady State Accumulation Index, Mean (SD)” value (males, all doses pooled) was 1.15 (0.16), the “CL/F, Mean (SD)” value (males, all doses pooled, Day 1) was 6.19 (1.15) L/h and the “Dose-Normalized Cmax, Mean (SD)” value (males, all doses pooled, Day 1) was 19.78 (3.09) ng/mL/mg. For the same compound, the “AUC% extrap, Mean (SD)” value (males, all doses pooled, Day 7) was 6.06 (5.38) %, the “CL/F, Mean (SD)” value (males, all doses pooled, Day 7) was 3.74 (0.83) L/h and the “Dose-Normalized AUCinf, Mean (SD)” value (males, all doses pooled, Day 7) was 512.15 (188.98) h * ng/mL/mg. The “Dose-Normalized Cmax, Mean (SD)” value (males, all doses pooled, Day 7) was 26.21 (3.94) ng/mL/mg, the “steady-state predose plasma concentrations achieved by” value (repeated daily doses) was no more than 5 study day and the “steady-state accumulation index, on average” value (seven days of daily dosing) was 1.1. The “Observed Accumulation Index, Mean (SD)” value (young subjects, 8 mg) was 1.58 (0.19), the “CL/F, Mean (SD)” value (young subjects, 8 mg, Day 1) was 5.36 (0.48) L/h and the “Dose-Normalized Cmax, Mean (SD)” value (young subjects, 8 mg, Day 1) was 22.42 (2.27) ng/mL/mg. The “AUC% extrap, Mean (SD)” value (young subjects, 8 mg, Day 7) was 8.61 (8.27) %, the “CL/F, Mean (SD)” value (young subjects, 8 mg, Day 7) was 3.37 (0.37) L/h and the “Dose-Normalized AUCinf, Mean (SD)” value (young subjects, 8 mg, Day 7) was 513.73 (174.76) h * ng/mL/mg. The “Dose-Normalized Cmax, Mean (SD)” value (young subjects, 8 mg, Day 7) was 28.00 (3.75) ng/mL/mg, the “Day 7/Day 1 Cmax Ratio, Mean (SD)” value (young subjects, 12 mg) was 1.15 (0.18) and the “Observed Accumulation Index, Mean (SD)” value (young subjects, 12 mg) was 1.65 (0.31). For the same compound, the “Steady State Accumulation Index, Mean (SD)” value (young subjects, 12 mg) was 1.01 (0.08), the “CL/F, Mean (SD)” value (young subjects, 12 mg, Day 1) was 6.46 (0.18) L/h and the “Dose-Normalized Cmax, Mean (SD)” value (young subjects, 12 mg, Day 1) was 19.92 (2.78) ng/mL/mg. The “AUC% extrap, Mean (SD)” value (young subjects, 12 mg, Day 7) was 4.77 (2.72) %, the “CL/F, Mean (SD)” value (young subjects, 12 mg, Day 7) was 4.00 (0.60) L/h and the “Dose-Normalized AUCinf, Mean (SD)” value (young subjects, 12 mg, Day 7) was 494.43 (177.79) h * ng/mL/mg. The “Dose-Normalized Cmax, Mean (SD)” value (young subjects, 12 mg, Day 7) was 22.79 (3.67) ng/mL/mg, the “Observed Accumulation Index, Mean (SD)” value (young subjects, 16 mg) was 1.70 (0.54) and the “CL/F, Mean (SD)” value (young subjects, 16 mg, Day 1) was 6.12 (0.90) L/h. The “Dose-Normalized Cmax, Mean (SD)” value (young subjects, 16 mg, Day 1) was 19.11 (1.97) ng/mL/mg, the “AUC% extrap, Mean (SD)” value (young subjects, 16 mg, Day 7) was 5.38 (5.13) % and the “CL/F, Mean (SD)” value (young subjects, 16 mg, Day 7) was 4.01 (1.21) L/h. For the same compound, the “Dose-Normalized AUCinf, Mean (SD)” value (young subjects, 16 mg, Day 7) was 501.47 (311.57) h * ng/mL/mg, the “Dose-Normalized Cmax, Mean (SD)” value (young subjects, 16 mg, Day 7) was 25.80 (4.07) ng/mL/mg and the “Observed Accumulation Index, Mean (SD)” value (young subjects, 20 mg) was 1.71 (0.22). The “CL/F, Mean (SD)” value (young subjects, 20 mg, Day 1) was 5.90 (1.31) L/h, the “Dose-Normalized Cmax, Mean (SD)” value (young subjects, 20 mg, Day 1) was 19.18 (2.87) ng/mL/mg and the “AUC% extrap, Mean (SD)” value (young subjects, 20 mg, Day 7) was 2.88 (1.30) %. For the same compound, the “CL/F, Mean (SD)” value (young subjects, 20 mg, Day 7) was 3.51 (0.97) L/h, the “Dose-Normalized AUCinf, Mean (SD)” value (young subjects, 20 mg, Day 7) was 523.40 (175.33) h * ng/mL/mg and the “Dose-Normalized Cmax, Mean (SD)” value (young subjects, 20 mg, Day 7) was 26.72 (4.88) ng/mL/mg.
